Test results taken from patent publication US4569791A, “Anti-diabetic compounds” (Eli Lilly and Company, priority 1984, dated 1986).

Columns and labels:
[1] = system: insulin receptor on IM-9 cells; experiment: IM-9 Radioreceptor Assay (displacement of 125I-insulin); format: binding, human; settings: for ED50: IM-9 cells, 125I-insulin 1-2×10^-11 M, 15° C., two hours; for Relative Potency: IM-9 radioreceptor assay, human proinsulin = 1
Procedure: A. IM-9 Radioreceptor Assay
IM-9 cells were grown in RPMI media containing 2 mM glutamine, 25 mM HEPES, and 10% fetal bovine serum. […] Incubations were carried out in 1.5 ml microfuge tubes at 15° C. for two hours. Concentrations of stock solutions containing insulin, proinsulin, or compound of this invention used in the binding studies were established by amino acid analysis and by their absorbance at 276 nm. The cells were resuspended during the assay every 30 minutes by inverting the tubes several times. At the end of the incubation, the tubes were centrifuged for one minute in a Beckman Microfuge, the supernant was aspirated, the tips of the tubes containing the cell pellet were excised, and the radioactivity was measured.

[2] = system: insulin receptor on isolated fat cells; experiment: Isolated Fat Cell Radioreceptor Assay (displacement of 125I-labeled insulin); format: binding; settings: for Relative Potency: isolated fat cell radioreceptor assay, human proinsulin = 1; for ED50: isolated fat cells, 125I-labeled insulin 1-2×10^-11 M, 15° C., two hours
Procedure: B. Isolated Fat Cell Radioreceptor Assay
Isolated fat cells were prepared by a modification [Huber, C. T., Solomon, S. S., and Duckworth, W. C., J. Clin. Invest. […] All incubations were in Krebs-Ringer-Hepes (KRH) buffer, pH 7.4, with 4% bovine serum albumin (BSA) in a total volume of 2 ml. […] At selected times, triplicate 300 μl aliquots were removed and added to microfuge tubes containing 100 μl dinonyl phthalate [see Gliemann, J., Osterlind, K., Vinten, J., and Gammeltoft, S., Biochem. Biophys. Acta. […] After centrifugation for one minute in a microfuge, the tubes were cut through the oil layer, and the cell pellet was counted using a gamma counter to determine binding.

isolated rat adipocytes = experiment: Biological Activity in Isolated Rat Adipocytes (incorporation of 2-3H-glucose in total fat cell lipid); format: cell-based; settings: for Relative Potency: biological activity in rat adipocytes, human proinsulin = 1; for ED50: rat adipocytes, 2-3H-glucose incorporation into lipid, 37° for 1 hr, mean ±SEM
Procedure: C. Biological Activity in Isolated Rat Adipocytes
Adipocytes were prepared from epididymal fat pads by a modification (Huber, supra) of the collagenase digestion procedure of Rodbell, supra. Krebs-Ringer-HEPES (KRH) buffer, pH 7.4, containing 4% bovine serum albumin and 0.55 mM glucose was used in all isolation and incubation steps.
Biological activity was assessed according to the method of Moody, A. J., Stan, M. A., Stan, M., and Glieman, J., Horm. Metab. Res. 6, 12-16 (1974) by monitoring the incorporation of 2-^3 H-glucose in total fat cell lipid. […] Radioactivity was determined in a Searle Isocap 300 liquid scintillation counter at an efficiency of approximately 30%. Blanks were prepared in which the scintillation fluid was added to the vials prior to the addition of cells. The average counts obtained from these vials were subtracted from those observed in all other samples.
Competitive binding curves and biological activity dose-response curves were analyzed using the PREFIT and ALLFIT programs [DeLean, A., Munson, P. J., and Rodbard, D., Am. J. Physiol. 235, E97-E102 (1978)] based on a four-parameter logistic model. These analyses indicated the concentration of insulin or proinsulin necessary to produce a half-maximal response, as well as the maximal and minimal values. All values are presented as the mean ±SEM.

Substance	ED50 [1]	Relative Potency [1]	Relative Potency [2]	ED50 [2]	Relative Potency (isolated rat adipocytes)	ED50 (isolated rat adipocytes)
Human Proinsulin [reference compound]	2.97 ± 0.2 × 10^-8 M	1	1	2.55 ± 0.6 × 10^-7 M	1	1.24 ± 0.2 × 10^-8 M
(32-33 split)HPI [(32-33 split) HPI]	5.92 ± 0.7 × 10^-9 M	5	5	5.29 ± 1.8 × 10^-8 M	5	2.56 ± 0.2 × 10^-9 M
Human Insulin [reference compound]						5.32 ± 0.7 × 10^-11 M
des(31,32)HPI [des (31,32) HPI]	5.60 ± 0.3 × 10^-9 M	5	9	2.85 ± 0.1 × 10^-8 M	5	2.68 ± 0.5 × 10^-9 M
